From patent US6492405B2, “Nitric oxide donors and pharmaceutical compositions containing them” (Yissum Research Development Company of the Hebrew …, priority 1999, dated 2002)

System: vascular cGMP
Assay: vasorelaxant activity measured as increase in vascular cGMP in rat aorta after i.v. push, before and after 18 hr continuous i.v. infusion
Type: in vivo, male Sprague-Dawley rats
Settings: for cGMP Post-infusion / cGMP Pre-infusion: rat aorta, i.v. push, nitroglycerin equimolar doses; for cGMP Post-infusion: after 18 hr continuous i.v. infusion of the same compound; for cGMP Pre-infusion: before 18 hr continuous i.v. infusion
Description: Representative for the new compounds, the vasorelaxant activities (measured as the ability of the tested drug to induce an increase in vascular cGMP) of the example compounds 1 to 6 were determined and compared to activity of nitroglycerin under the same experimental conditions following single and sustained exposure of rats to the compound.
For this purpose the compound to be tested was administered, in each case, to 8 male Sprague-Dawley rats (300-400 g) before and after an 18 hr continuous intravenous infusion of the compound. […] After drug administration (i.v. push), the rat was sacrificed, the aorta immediately removed and processed for cGMP measurement as has been described in detail by us. All of the tested new compounds were utilized in nitroglycerin equimolar doses, either before of after the “tolerance” induction period.
The following table summarizes the results obtained following administration of either nitroglycerin or the tested compounds before and after an 18 hr continuous exposure to the same compound: […]

Molecule	tolerance to the cGMP-inducing activity (after 18 hr continuous in vivo administration)	cGMP Post-infusion [pmol/g tissue]	cGMP Pre-infusion [pmol/g tissue]
O=[N+]([O-])OCC(CO[N+](=O)[O-])O[N+](=O)[O-] [Nitroglycerin, nitroglycerin, reference compound]	developed early	68 ± 9	153 ± 13
1,1′-Bisthiomethyl-3,4-dihydroxy-cyclohexane-dinitrate ester [Compound 4]	–	169 ± 13	149 ± 11
O=[N+]([O-])OCCCCCC1CCSS1 (centres unmarked) [Compound 5, Thioctyl Alcohol Nitrate Ester]	–	113 ± 11	123 ± 13
1,2-Dihydroxy-dinitrate-6,8-dithiane [Compound 6]	–	179 ± 12	193 ± 17
O=[N+]([O-])OCC1(CO[N+](=O)[O-])CCSSC1 [Compound 3, 1,1-Diemethanol-dinitrate-3,4-dithiane]	–	174 ± 16	171 ± 14
